“Also recorded” adds a separate entry of the source.
Assays:
iGN expressing ChETA = type: cell-based, human
iGNs = experiment: Whole cell patch clamp of iGNs: GABA-evoked responses and spontaneous IPSCs; type: cell-based, human; conditions: 1 mM, 100 ms
Protocol: Whole cell patch clamp recordings were performed on iGNs and iENs with voltage or current clamp mode. Recording pipettes with resistances of 4-6 MΩ were filled with an internal solution containing (in mM): 120 K-gluconate, 9 KCl, 10 KOH, 3.48 MgCl2, 4 NaCl, 10 HEPES, 4 Na2ATP, 0.4 Na3GTP, 17.5 Sucrose, 0.5 EGTA with an osmolarity of 290 mOsm and pH 7.3. Neurons were bathed in the extracellular solution containing (in mM): 124 NaCl, 3 KCl, 1.3 NaH2PO4, 10 dextrose, 2 MgCl2, 2 CaCl2, 10 HEPES at pH 7.4. Bicuculline (20 μM, Tocris) and CNQX (50 μM, Tocris) were used to block inhibitory or excitatory synaptic responses, respectively. […] Recordings with serial resistance higher than 20 MO or leaking current more than 200 pA were not analyzed. Data were analyzed offline using the ClampFit (Molecular Devices) or MiniAnalysis (Synaptosoft). […] The reversal potential for ions was −49 mV in our recording system, calculated using the simplified Nernst equation: E(Cl^−)=−59*log(extracellular[Cl^−]/intracellular[Cl^−]),(T=25° C.). Spontaneous action potentials were recorded at I=0 mode. […]
For chemical GABA evoked IPSC recording, tip of glass pipettes filled with freshly made GABA (1 mM, Sigma) was put approximately 100 μm away from soma along dendrites of recorded neurons. […]

iENs = experiment: sEPSC recording from iENs; type: cell-based, human; conditions: CNQX 20 μM; 21 dpt
Protocol: Whole cell patch clamp recordings were performed on iGNs and iENs with voltage or current clamp mode. Recording pipettes with resistances of 4-6 MΩ were filled with an internal solution containing (in mM): 120 K-gluconate, 9 KCl, 10 KOH, 3.48 MgCl2, 4 NaCl, 10 HEPES, 4 Na2ATP, 0.4 Na3GTP, 17.5 Sucrose, 0.5 EGTA with an osmolarity of 290 mOsm and pH 7.3. Neurons were bathed in the extracellular solution containing (in mM): 124 NaCl, 3 KCl, 1.3 NaH2PO4, 10 dextrose, 2 MgCl2, 2 CaCl2, 10 HEPES at pH 7.4. […] Neurons were held at −70 mV except otherwise indicated or at required currents using an Axon MultiClamp 700B amplifier (Axon Instruments). Signal was sampled at 40 kHz and filtered at 2 kHz (Digidata 1440A, Molecular Devices). Recordings with serial resistance higher than 20 MO or leaking current more than 200 pA were not analyzed. Data were analyzed offline using the ClampFit (Molecular Devices) or MiniAnalysis (Synaptosoft). Voltage clamp was used for recording I/V curve of Na/K current using a protocol of increasing holding potential 10 mV for each step from −80 mV. […] The reversal potential for ions was −49 mV in our recording system, calculated using the simplified Nernst equation: E(Cl^−)=−59*log(extracellular[Cl^−]/intracellular[Cl^−]),(T=25° C.). Spontaneous action potentials were recorded at I=0 mode. […]

[1] = tested on: transplanted human iGNs in acute cortical slices; experiment: Slice recording of sEPSCs from human iGNs transplanted into mouse cortex; type: cell-based; conditions: CNQX 50 μM; -70 mV voltage clamp
Protocol: P1 NSG pups were anesthetized on ice for 1-2 minutes before being secured with tape onto a prechilled ice block. Human iGNs were priorly labeled with RFP as described, and trypsinized to single cells at 8 dpt. Concentrated cell suspensions (˜2.5-5×10^4 cells/μl) were front loaded into a microliter syringe (26s gauge, Hamilton Company) and injected (200 nl, 250 nl/min) bilaterally to a depth of 0.2 mm near the centre of the anterior/posterior axis and 1 mm away from the midline.
After isofluorane anesthesia, brains were quickly cut out and 300-μm coronal slices were sectioned using vibrating microtome (VF-200 Microtome, Precisionary Instruments). Slices were incubated at 30° C. in artificial cerebrospinal fluid (ACSF) containing (in mM): 125 NaCl, 2.5 KCl, 1.25 NaH2PO4, 2 CaCl2, 1 MgCl2, 26 NaHCO3, and 10 glucose, saturated with 95% 02 and 5% CO2 at 30-32° C. for recovery for at least 1 hour. During recording, slices were kept in a recording chamber with continuous perfusion of ACSF. CNQX (50 μM, Tocris) was used to block sEPSC. Patch recordings were done by using IR-DIC visualization techniques with an Olympus BX51WI upright microscope with a ×60 water-immersion lens. Patch clamp recording method was same with that of recording in cultured cell.

mixed iENs/iGNs = experiment: Spontaneous PSC recording from iGNs in mixed iENs/iGNs co-culture; type: cell-based, human; conditions: 56 dpt, -70 mV; after bicuculline
Protocol: Whole cell patch clamp recordings were performed on iGNs and iENs with voltage or current clamp mode. Recording pipettes with resistances of 4-6 MΩ were filled with an internal solution containing (in mM): 120 K-gluconate, 9 KCl, 10 KOH, 3.48 MgCl2, 4 NaCl, 10 HEPES, 4 Na2ATP, 0.4 Na3GTP, 17.5 Sucrose, 0.5 EGTA with an osmolarity of 290 mOsm and pH 7.3. Neurons were bathed in the extracellular solution containing (in mM): 124 NaCl, 3 KCl, 1.3 NaH2PO4, 10 dextrose, 2 MgCl2, 2 CaCl2, 10 HEPES at pH 7.4. Bicuculline (20 μM, Tocris) and CNQX (50 μM, Tocris) were used to block inhibitory or excitatory synaptic responses, respectively. Neurons were held at −70 mV except otherwise indicated or at required currents using an Axon MultiClamp 700B amplifier (Axon Instruments). Signal was sampled at 40 kHz and filtered at 2 kHz (Digidata 1440A, Molecular Devices). Recordings with serial resistance higher than 20 MO or leaking current more than 200 pA were not analyzed. Data were analyzed offline using the ClampFit (Molecular Devices) or MiniAnalysis (Synaptosoft). […] The reversal potential for ions was −49 mV in our recording system, calculated using the simplified Nernst equation: E(Cl^−)=−59*log(extracellular[Cl^−]/intracellular[Cl^−]),(T=25° C.). Spontaneous action potentials were recorded at I=0 mode. […]

Q: TTX was tested. Which “light-evoked inward currents, block” value (iGN expressing ChETA) did it give?
A: The value was “could not block these light-evoked currents”.

Q: Which “induction of IPSCs by exogenous application” value (iGNs) does the source give for `NCCCC(=O)O` [GABA, gamma-aminobutyric acid] here?
A: Its value is “triggered inhibitory postsynaptic currents”.

Q: What does the source list for `N#Cc1cc2[nH]c(=O)c(=O)[nH]c2cc1[N+](=O)[O-]` [CNQX]?
A: sEPSCs in iENs, block (iENs): completely abolished sEPSCs; spontaneous EPSCs (sEPSCs) in transplanted iGNs, block [1]: abolished; also recorded: blocked; sEPSCs (fast-rise, fast-decay PSCs) in iGNs of mixed culture, block (mixed iENs/iGNs): completely abolished the remaining fast-rise, fast-decay PSCs; also recorded: blocked

From patent US20180072988A1, “GENERATION OF FUNCTIONAL CELLS FROM STEM CELLS” (priority 2015, published 2018)
